Test results as given in the supplement of paper PMC10883282.
± gives the standard deviation of the averaged measurements.

Experiments:
Experiment in all cases: relative viability vs DMSO control (72 h) (fraction); higher = more viable cells
G401 = tested on: G401
Procedure, shortened: (§1)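 Relative viability was measured with ATPLite and expressed as percent growth, averaged across up to triplicate wells. Sarcoma cell lines had been seeded in 384-well plates to reach 80–90% confluence, dosed after 24 h, and incubated 72 h at 37 °C, 5% CO2. All data were rescaled on a scale where 1 is full and 0 is none.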

A204 = tested on: A204
Procedure, shortened: as §1

SW1353 = tested on: SW1353
Procedure, shortened: as §1

SK-ES-1 = tested on: SK-ES-1
Procedure, shortened: as §1

HT1080 = tested on: HT1080
Procedure, shortened: as §1

SW684 = tested on: SW684
Procedure, shortened: as §1

SW982 = tested on: SW982
Procedure, shortened: as §1

SW872 = tested on: SW872
Procedure, shortened: as §1

RD-ES = tested on: RD-ES
Procedure, shortened: as §1

KHOS-240S = tested on: KHOS-240S
Procedure, shortened: as §1

KHOS-NP = tested on: KHOS-NP
Procedure, shortened: as §1

SYO-1 = tested on: SYO-1
Procedure, shortened: as §1

CNC(=O)c1ccccc1Sc1ccc2c(/C=C/c3ccccn3)n[nH]c2c1 [Axitinib]
Details | relative viability
A204, 0.00017 µM | 1.04 ± 0.081
A204, 0.00051 µM | 1.07 ± 0.048
A204, 0.00152 µM | 1.03 ± 0.036
A204, 0.00457 µM | 0.942 ± 0.032
A204, 0.01372 µM | 0.77 ± 0.063
A204, 0.04115 µM | 0.484 ± 0.032
A204, 0.1235 µM | 0.405 ± 0.043
A204, 0.3704 µM | 0.359 ± 0.043
A204, 1.111 µM | 0.289 ± 0.045
A204, 3.333 µM | 0.159 ± 0.096
A204, 10 µM | 0.0338 ± 0.0049
G401, 0.00017 µM | 1.04 ± 0.037
G401, 0.00051 µM | 1.04 ± 0.014
G401, 0.00152 µM | 1.02 ± 0.011
G401, 0.00457 µM | 1.01 ± 0.011
G401, 0.01372 µM | 0.979 ± 0.043
G401, 0.04115 µM | 0.963 ± 0.041
G401, 0.1235 µM | 0.942 ± 0.049
G401, 0.3704 µM | 0.854 ± 0.056
G401, 1.111 µM | 0.806 ± 0.05
G401, 3.333 µM | 0.456 ± 0.046
G401, 10 µM | 0.0633 ± 0.0041
HT1080, 0.00017 µM | 1.1 ± 0.017
HT1080, 0.00051 µM | 1.06 ± 0.071
HT1080, 0.00152 µM | 1.1 ± 0.012
HT1080, 0.00457 µM | 1.1 ± 0.042
HT1080, 0.01372 µM | 1.13 ± 0.025
HT1080, 0.04115 µM | 1.11 ± 0.029
HT1080, 0.1235 µM | 1.08 ± 0.036
HT1080, 0.3704 µM | 1 ± 0.049
HT1080, 1.111 µM | 1.04 ± 0.037
HT1080, 3.333 µM | 0.979 ± 0.035
HT1080, 10 µM | 0.388 ± 0.028
KHOS-240S, 0.00017 µM | 1.05 ± 0.041
KHOS-240S, 0.00051 µM | 1.02 ± 0.03
KHOS-240S, 0.00152 µM | 1.04 ± 0.042
KHOS-240S, 0.00457 µM | 1.05 ± 0.049
KHOS-240S, 0.01372 µM | 1.02 ± 0.035
KHOS-240S, 0.04115 µM | 1.01 ± 0.038
KHOS-240S, 0.1235 µM | 0.964 ± 0.021
KHOS-240S, 0.3704 µM | 0.802 ± 0.021
KHOS-240S, 1.111 µM | 0.791 ± 0.056
KHOS-240S, 3.333 µM | 0.495 ± 0.028
KHOS-240S, 10 µM | 0.214 ± 0.013
KHOS-NP, 0.00017 µM | 1.08 ± 0.034
KHOS-NP, 0.00051 µM | 1.12 ± 0.032
KHOS-NP, 0.00152 µM | 1.12 ± 0.031
KHOS-NP, 0.00457 µM | 1.12 ± 0.013
KHOS-NP, 0.01372 µM | 1.12 ± 0.02
KHOS-NP, 0.04115 µM | 1.106 ± 0.0093
KHOS-NP, 0.1235 µM | 1.07 ± 0.035
KHOS-NP, 0.3704 µM | 1.01 ± 0.038
KHOS-NP, 1.111 µM | 0.986 ± 0.015
KHOS-NP, 3.333 µM | 0.827 ± 0.029
KHOS-NP, 10 µM | 0.405 ± 0.049
RD-ES, 0.00017 µM | 0.962 ± 0.036
RD-ES, 0.00051 µM | 0.92 ± 0.048
RD-ES, 0.00152 µM | 0.938 ± 0.042
RD-ES, 0.00457 µM | 0.947 ± 0.032
RD-ES, 0.01372 µM | 0.94 ± 0.057
RD-ES, 0.04115 µM | 0.963 ± 0.035
RD-ES, 0.1235 µM | 0.938 ± 0.029
RD-ES, 0.3704 µM | 0.871 ± 0.06
RD-ES, 1.111 µM | 0.85 ± 0.02
RD-ES, 3.333 µM | 0.729 ± 0.087
RD-ES, 10 µM | 0.0832 ± 0.016
SK-ES-1, 0.00017 µM | 0.9896 ± 0.0025
SK-ES-1, 0.00051 µM | 1.06 ± 0.02
SK-ES-1, 0.00152 µM | 1.03 ± 0.033
SK-ES-1, 0.00457 µM | 1.02 ± 0.033
SK-ES-1, 0.01372 µM | 1.01 ± 0.047
SK-ES-1, 0.04115 µM | 0.969 ± 0.018
SK-ES-1, 0.1235 µM | 0.943 ± 0.022
SK-ES-1, 0.3704 µM | 0.829 ± 0.043
SK-ES-1, 1.111 µM | 0.837 ± 0.038
SK-ES-1, 3.333 µM | 0.499 ± 0.05
SK-ES-1, 10 µM | 0.0154 ± 0.0008
SW684, 0.00017 µM | 1.17 ± 0.069
SW684, 0.00051 µM | 1.17 ± 0.013
SW684, 0.00152 µM | 1.21 ± 0.038
SW684, 0.00457 µM | 1.188 ± 0.005
SW684, 0.01372 µM | 1.19 ± 0.05
SW684, 0.04115 µM | 1.15 ± 0.056
SW684, 0.1235 µM | 1.14 ± 0.012
SW684, 0.3704 µM | 1.12 ± 0.032
SW684, 1.111 µM | 1.14 ± 0.035
SW684, 3.333 µM | 0.978 ± 0.053
SW684, 10 µM | 0.493 ± 0.036
SW872, 0.00017 µM | 1.08 ± 0.024
SW872, 0.00051 µM | 1.04 ± 0.037
SW872, 0.00152 µM | 1.06 ± 0.052
SW872, 0.00457 µM | 1.08 ± 0.018
SW872, 0.01372 µM | 1.05 ± 0.033
SW872, 0.04115 µM | 1.03 ± 0.016
SW872, 0.1235 µM | 0.981 ± 0.033
SW872, 0.3704 µM | 0.902 ± 0.075
SW872, 1.111 µM | 0.779 ± 0.053
SW872, 3.333 µM | 0.511 ± 0.027
SW872, 10 µM | 0.213 ± 0.0081
SW982, 0.00017 µM | 0.998 ± 0.022
SW982, 0.00051 µM | 0.997 ± 0.022
SW982, 0.00152 µM | 1 ± 0.026
SW982, 0.00457 µM | 1.02 ± 0.021
SW982, 0.01372 µM | 0.991 ± 0.053
SW982, 0.04115 µM | 1.015 ± 0.008
SW982, 0.1235 µM | 0.9984 ± 0.0073
SW982, 0.3704 µM | 0.96 ± 0.066
SW982, 1.111 µM | 0.922 ± 0.044
SW982, 3.333 µM | 0.409 ± 0.018
SW982, 10 µM | 0.0993 ± 0.005
SW1353, 0.00017 µM | 1.09 ± 0.041
SW1353, 0.00051 µM | 1.1 ± 0.015
SW1353, 0.00152 µM | 1.05 ± 0.019
SW1353, 0.00457 µM | 1.04 ± 0.041
SW1353, 0.01372 µM | 1.04 ± 0.02
SW1353, 0.04115 µM | 1.01 ± 0.034
SW1353, 0.1235 µM | 1.02 ± 0.079
SW1353, 0.3704 µM | 0.908 ± 0.026
SW1353, 1.111 µM | 0.94 ± 0.035
SW1353, 3.333 µM | 0.789 ± 0.036
SW1353, 10 µM | 0.288 ± 0.011
SYO-1, 0.00017 µM | 1 ± 0.0059
SYO-1, 0.00051 µM | 0.973 ± 0.026
SYO-1, 0.00152 µM | 0.9673 ± 0.009
SYO-1, 0.00457 µM | 0.913 ± 0.011
SYO-1, 0.01372 µM | 0.841 ± 0.038
SYO-1, 0.04115 µM | 0.742 ± 0.035
SYO-1, 0.1235 µM | 0.662 ± 0.013
SYO-1, 0.3704 µM | 0.485 ± 0.036
SYO-1, 1.111 µM | 0.422 ± 0.026
SYO-1, 3.333 µM | 0.141 ± 0.018
SYO-1, 10 µM | 0.0669 ± 0.017
